Test results reported in ChEMBL document CHEMBL2163345, “Part II. Development of novel colchicine-derived immunosuppressants with improved pharmacokinetic properties” (Bioorg Med Chem Lett, 2012).
In brackets after ≈: the same amount, converted by molar mass. One block for each compound: values may come before it. Activity calls are given as the source filed them. No cut-off for these calls is given here.

Columns and labels:
Splenocyte = test: Immunosuppressant activity in mouse splenocytes by mixed-leukocyte reaction assay; assay type: functional, cell-based
[1] = Solubility of the compound in presence of 20% serum; assay type: physicochemical
[2] = Immunosuppressant activity in chicken T-lymphocyte activated splenic lymphocytes assessed as inhibition of ConA-induced cell proliferation by [3H]thymidine incorporation assay; assay type: functional; details: Gallus gallus
[3] = Immunosuppressant activity in chicken B-lymphocyte activated splenic lymphocytes assessed as inhibition of LPS-induced cell proliferation by [3H]thymidine incorporation assay; assay type: functional; details: Gallus gallus
[4] = Volume of distribution at steady state in BALB/c mouse at 0.5 mg/kg, iv; assay type: ADME, organism-based; set-up: dose 0.5 mg/kg, route intravenous; details: in vivo, read-out: Vdss
[5] = Half life in BALB/c mouse at 1 mg/kg, po; assay type: ADME, organism-based; set-up: dose 1 mg/kg, route oral; details: in vivo
[6] = Oral bioavailability in BALB/c mouse at 1 mg/kg; assay type: ADME, organism-based; details: in vivo
[7] = Mean residence time (infinity) in BALB/c mouse at 1 mg/kg, po; assay type: ADME, organism-based; set-up: dose 1 mg/kg, route oral; details: in vivo
T-cell = test: Antiproliferative activity against ConA-induced T cells; assay type: functional, cell-based
[8] = Mean residence time (infinity) in BALB/c mouse at 0.5 mg/kg, iv; assay type: ADME, organism-based; set-up: dose 0.5 mg/kg, route intravenous; details: in vivo
BMDM = test: Antiproliferative activity against LPS-induced BMDM cells; assay type: functional, cell-based
[9] = Antiproliferative activity against bone marrow-derived dendritic cells; assay type: cell-based; details: dendritic cell
[10] = AUC (0 to infinity) in BALB/c mouse at 1 mg/kg, po; assay type: ADME, organism-based; set-up: time infinity, dose 1 mg/kg, route oral; details: plasma
[11] = Antiproliferative activity against T cells; assay type: cell-based; details: t-cell
[12] = Half life in BALB/c mouse at 0.5 mg/kg, iv; assay type: ADME, organism-based; set-up: dose 0.5 mg/kg, route intravenous; details: in vivo
Dendritic cell = test: Antiproliferative activity against LPS-induced bone marrow-derived dendritic cells; assay type: functional, cell-based
Mus musculus [13] = species: Mus musculus; test: Immunosuppressant activity in C57BL/6 mouse assessed as inhibition of DNCB-induced cytokine release by local lymph node assay; assay type: functional, organism-based
[14] = Tmax in BALB/c mouse at 1 mg/kg, po; assay type: ADME, organism-based; set-up: dose 1 mg/kg, route oral; details: in vivo
Mus musculus [15] = test: Immunosuppressant activity in C57BL/6 mouse assessed as inhibition of carrageenan-induced paw edema; assay type: functional, organism-based
[16] = Antiproliferative activity against BMDM cells; assay type: cell-based
Mus musculus [17] = species: Mus musculus; test: Immunosuppressant activity in C57BL/6 mouse assessed as inhibition of zymosan A-induced arthritis; assay type: functional, organism-based
[18] = Clearance in BALB/c mouse at 0.5 mg/kg, iv; assay type: ADME, organism-based; set-up: dose 0.5 mg/kg, route intravenous; details: in vivo
[19] = Antiproliferative activity against B cells; assay type: cell-based; details: b-cell
[20] = Cmax in BALB/c mouse at 1 mg/kg, po; assay type: ADME, organism-based; set-up: dose 1 mg/kg, route oral; details: in vivo
[21] = AUC (0 to infinity) in BALB/c mouse at 0.5 mg/kg, iv; assay type: ADME, organism-based; set-up: time infinity, dose 0.5 mg/kg, route intravenous; details: plasma
B-cell = test: Antiproliferative activity against LPS-induced B cells; assay type: functional, cell-based
[22] = Mus musculus, Splenocyte, read-out: IC50

SMILES: COc1cc2c(c(OC)c1OC)-c1cccc(=O)cc1[C@@H](NC(=O)C1CC1C)CC2 (stereo not given in full)
IC50 (Splenocyte; splenocyte): Not Active

SMILES: C=C(C)/C=C(\CC)C(=O)N[C@H]1CCc2cc(OC)c(OC)c(OC)c2-c2ccc(SC)c(=O)cc21
IC50 (Splenocyte; [22]): 31 nM

SMILES: COc1cc2c(c(OC)c1OC)-c1ccc(SC)c(=O)cc1[C@@H](NC(=O)C1C(C)N1C)CC2 (stereo not given in full)
IC50 (Splenocyte; [22]): 38 nM

SMILES: COc1cc2c(c(OC)c1OC)-c1ccc(SC)c(=O)cc1[C@@H](NC(=O)c1cccc(CO[N+](=O)[O-])c1)CC2
solubility [1]: 10 µM

SMILES: C/C=C/C=C/C(=O)N[C@H]1CCc2cc(OC)c(OC)c(OC)c2-c2ccc(SC)c(=O)cc21
IC50 [2]: 0.0407 µg/mL (≈ 0.087 µM)
IC50 (Splenocyte; [22]): 4 nM
IC50 [3]: 0.0057 µg/mL (≈ 0.0122 µM)

SMILES: COc1cc2c(c(OC)c1OC)-c1ccc(OC)c(=O)cc1[C@@H](NC(C)=O)CC2 [COLCHICINE]
solubility [1]: 300 µM

SMILES: COc1cc2c(c(OC)c1OC)-c1ccc(SC)c(=O)cc1[C@@H](NC(=O)CCCO[N+](=O)[O-])CC2
solubility [1]: 100 µM

SMILES: C=C(CC)C(=O)N[C@H]1CCc2cc(OC)c(OC)c(OC)c2-c2ccc(SC)c(=O)cc21
IC50 (Splenocyte; [22]): 86 nM

SMILES: C/C=C/CC(=O)N[C@H]1CCc2cc(OC)c(OC)c(OC)c2-c2ccc(SC)c(=O)cc21
IC50 (Splenocyte; [22]): 1670 nM

SMILES: COc1cc2c(c(OC)c1OC)-c1ccc(SC)c(=O)cc1[C@@H](NC(=O)C1NC1C)CC2 (stereo not given in full)
IC50 (Splenocyte; [22]): 46 nM

SMILES: C=CC(=C)C(=O)N[C@H]1CCc2cc(OC)c(OC)c(OC)c2-c2ccc(SC)c(=O)cc21
IC50 (Splenocyte; [22]): 112 nM

SMILES: C/C=C/C(=O)N[C@H]1CCc2cc(OC)c(OC)c(OC)c2-c2ccc(SC)c(=O)cc21
IC50 (Splenocyte; [22]): 67 nM

SMILES: C=CCC(=O)N[C@H]1CCc2cc(OC)c(OC)c(OC)c2-c2ccc(SC)c(=O)cc21
IC50 (Splenocyte; [22]): 702 nM

Continued, in another order:

IC50 (Splenocyte; [22]): 119 nM
SMILES: COc1cc2c(c(OC)c1OC)-c1ccc(SC)c(=O)cc1[C@@H](NC(=O)C1OC1C)CC2 (mixture of isomers)

IC50 (Splenocyte; [22]): 1250 nM
SMILES: COc1cc2c(c(OC)c1OC)-c1ccc(OC)c(=O)cc1[C@@H](NC(=O)C1CC1C)CC2 (stereo not given in full)

IC50 (Splenocyte; splenocyte): Not Active
SMILES: COc1cc2c(c(OC)c1OC)-c1ccc(SC)c(=O)cc1[C@H](NC(=O)C1CC1C)CC2 (stereo not given in full)

IC50 (Splenocyte; splenocyte): Not Active
SMILES: COc1cc2c(c(OC)c1OC)-c1ccc(S(C)(=O)=O)c(=O)cc1[C@@H](NC(=O)C1CC1C)CC2 (stereo not given in full)

Vd [4]: 1.6 L/kg
half-life [5]: 2.9 h
bioavailability [6]: 67.3%
MRT inf [7]: 2.2 h
MRT inf [8]: 0.6 h
AUC(0-inf) [10]: 269 ng·h/mL
IC50 (Splenocyte; [22]): 5 nM
half-life [12]: 2.9 h
Tmax [14]: 0.25 h
clearance [18]: 41.7 mL/min/kg
Cmax [20]: 254 ng/mL
AUC(0-inf) [21]: 200 ng·h/mL
SMILES: COc1cc2c(c(OC)c1OC)-c1ccc(SC)c(=O)cc1[C@@H](NC(=O)C1CC1C)CC2 (stereo not given in full)
Activity (T-cell): Active
Activity (BMDM): Active
Activity [9]: Non-toxic
IC50 [2]: 0.031 µg/mL (≈ 0.068 µM)
Activity [11]: Non-toxic
Activity (Dendritic cell): Active
inhibition (Mus musculus [13]): Active
inhibition (Mus musculus [15]): Dose-dependent effect
Activity [16]: Non-toxic
inhibition (Mus musculus [17]): Dose-dependent effect
IC50 [3]: 0.0059 µg/mL (≈ 0.013 µM)
Activity [19]: Non-toxic
Activity (B-cell): Active

IC50 (Splenocyte; splenocyte): Not Active
SMILES: COc1cc2c(c(OC)c1OC)-c1ccc([S+](C)[O-])c(=O)cc1[C@@H](NC(=O)C1CC1C)CC2 (stereo not given in full)
